Reference: patent US12624017B2, “Salt form of isoquinolinone type compound as rock inhibitor and preparation method therefor” (GUANGZHOU OCUSUN OPHTHALMIC BIOTECHNOLOGY CO., LTD., priority 2020, dated 2026)

Experiments:
[1] = system: New Zealand rabbits with normal intraocular pressure; experiment: Eye irritation response detection with hand-held slit lamp, 14 days eye drops; assay type: in vivo, New Zealand white rabbits; details: 4 mg/mL; 14 consecutive days; 50 μl/eye/day
Method: 42 male New Zealand white rabbits were randomly grouped into 7 groups according to body weights, 6 rabbits/group. Among the animals in Groups 1-7, the left eye was administrated dropwise with normal saline, and the right eye was administrated dropwise with a solvent/control/test article in an administration volume of 50 μL/eye respectively, once a day for 14 consecutive days, and the day of first administration was recorded as Day 1. The intraocular pressures of the animals were measured before administration on Day 1, as well as at 1 h, 2 h, 4 h, 6 h, 8 h and 10 h after administration on Day 1 (Table 10).
Animals were subjected to eye irritation response detection and fluorescein sodium detection (scored according to scoring criteria) in both eyes with a hand-held slit lamp before the start of test (Day −2/Day −1), before daily administration (Day 1 to Day 14), and at 1 h, 2 h, 4 h, 24 h, 48 h, and 72 h after the last administration (Day 14).
Animals were subjected to eye irritation response detection in both eyes with a handheld slit lamp on Day −2 to Day −1 before the start of test, before first administration every day (Day 1 to Day 14), and at 1 h, 2 h, 4 h, 24 h, 48 h, and 72 h after the last administration. The scoring criteria were as follows: […]

[2] = system: New Zealand rabbits with normal intraocular pressure; experiment: Intraocular pressure reduction, normal intraocular pressure, eye drops in both eyes for 14 days (Operation I); assay type: in vivo, New Zealand white rabbits; details: for Change in intraocular pressure: vs negative control
Source text: An intraocular pressure reduction effect and potential ocular toxicity of the compound of formula (I) were inspected with rabbits with normal intraocular pressure by repeated administration of eye drops for 14 days.
Male New Zealand white rabbits, aged 97 to 127 days, weighted 2.6-3.5 kg, purchased from Pizhou Oriental Breeding Co., Ltd.
The Male New Zealand white rabbits were randomly divided into 7 groups according to body weights, 6 rabbits/group. The animals in Groups 1 to 7 were administrated dropwise with a solvent/control/test article in both eyes in an administration volume of 50 μL/eye, once a day for 14 consecutive days, and the day of first administration was recorded as Day 1. The intraocular pressures of the animals were measured before administration, as well as at 1, 2, 4, 6, 8 and 10 h after administration, respectively. On Days 2 to 14, the intraocular pressures of animals in the K-115 administration group were measured at 1 h after daily administration; and intraocular pressures of the animals in the remaining groups were measured at 4 h after daily administration.

[3] = 4 mg/mL once a day, Day 2, 1 h after daily administration
[4] = 4 mg/mL once a day, Day 3, 1 h after daily administration
[5] = 4 mg/mL once a day, Day 4, 1 h after daily administration
[6] = 4 mg/mL once a day, Day 5, 1 h after daily administration
[7] = 4 mg/mL once a day, Day 6, 1 h after daily administration
[8] = 4 mg/mL once a day, Day 7, 1 h after daily administration
[9] = 4 mg/mL once a day, Day 8, 1 h after daily administration
[10] = 4 mg/mL once a day, Day 9, 1 h after daily administration
[11] = 4 mg/mL once a day, Day 10, 1 h after daily administration
[12] = 4 mg/mL once a day, Day 11, 1 h after daily administration
[13] = 4 mg/mL once a day, Day 12, 1 h after daily administration
[14] = 4 mg/mL once a day, Day 13, 1 h after daily administration
[15] = 4 mg/mL once a day, Day 14, 1 h after daily administration
[16] = 4 mg/mL, Day 1, 1 h after administration
[17] = 4 mg/mL, Day 1, 2 h after administration
[18] = 4 mg/mL, Day 1, 4 h after administration
[19] = 4 mg/mL, Day 1, 6 h after administration
[20] = 4 mg/mL, Day 1, 8 h after administration
[21] = 4 mg/mL, Day 1, 10 h after administration
[22] = 4 mg/mL, Day 1, before administration

## C[C@H]1CNCCCN1S(=O)(=O)c1cccc2cncc(F)c12 [K-115, reference compound]
[1]
  Eye irritation (conclusion): no irritation
[2]; [3]
  Average intraocular pressure in both eyes: 6.83 mmHg
  Change in intraocular pressure: 4.25 mmHg
[2]; [4]
  Average intraocular pressure in both eyes: 6.81 mmHg
  Change in intraocular pressure: 3.58 mmHg
[2]; [5]
  Average intraocular pressure in both eyes: 6.92 mmHg
  Change in intraocular pressure: 3.69 mmHg
[2]; [6]
  Average intraocular pressure in both eyes: 6.67 mmHg
  Change in intraocular pressure: 4.3 mmHg
[2]; [7]
  Average intraocular pressure in both eyes: 6.75 mmHg
  Change in intraocular pressure: 2.56 mmHg
[2]; [8]
  Average intraocular pressure in both eyes: 7.39 mmHg
  Change in intraocular pressure: 2.67 mmHg
[2]; [9]
  Average intraocular pressure in both eyes: 7.53 mmHg
  Change in intraocular pressure: 3.78 mmHg
[2]; [10]
  Average intraocular pressure in both eyes: 7.78 mmHg
  Change in intraocular pressure: 1.66 mmHg
[2]; [11]
  Average intraocular pressure in both eyes: 7.94 mmHg
  Change in intraocular pressure: 1.81 mmHg
[2]; [12]
  Average intraocular pressure in both eyes: 7.94 mmHg
  Change in intraocular pressure: 1.75 mmHg
[2]; [13]
  Average intraocular pressure in both eyes: 7.89 mmHg
  Change in intraocular pressure: 1.64 mmHg
[2]; [14]
  Average intraocular pressure in both eyes: 8.25 mmHg
  Change in intraocular pressure: 3.14 mmHg
[2]; [15]
  Average intraocular pressure in both eyes: 8.50 mmHg
  Change in intraocular pressure: 2.47 mmHg
[2]; [16]
  Average intraocular pressure in both eyes: 7.72 mmHg
  Change in intraocular pressure: 2.59 mmHg
[2]; [17]
  Average intraocular pressure in both eyes: 9.00 mmHg
  Change in intraocular pressure: 1.97 mmHg
[2]; [18]
  Average intraocular pressure in both eyes: 9.67 mmHg
  Change in intraocular pressure: 1.64 mmHg
[2]; [19]
  Average intraocular pressure in both eyes: 10.56 mmHg
  Change in intraocular pressure: 1.38 mmHg
[2]; [20]
  Average intraocular pressure in both eyes: 10.28 mmHg
  Change in intraocular pressure: 2.69 mmHg
[2]; [21]
  Average intraocular pressure in both eyes: 12.81 mmHg
  Change in intraocular pressure: 1.61 mmHg
[2]; [22]
  Average intraocular pressure in both eyes: 10.83 mmHg
  Change in intraocular pressure: −0.94 mmHg
